Values after ≈ are worked out from the molar mass of the structure shown.
Columns and labels:
[1] = system: P. acnes clinical isolates (clindamycin resistant); assay: Antimicrobial susceptibility of clindamycin resistant P. acnes clinical isolates against various antibiotics (Table 2); assay type: cell-based; details: for MIC: Cutibacterium acnes; for susceptibility of the strains as indicated by MIC values: all the clindamycin, erythromycin resistant strains of Table 2
Excerpt: Various clinical isolates are obtained from patients carrying Clindamycin Resistant P. acnes and their antimicrobial susceptibility to fluoroquinolone antibiotics is studied vis-à-vis susceptibility to Clindamycin and Erythromycin.

P. acnes isolates = assay: Antimicrobial susceptibility patterns of P. acnes isolates against different antibiotics (Table 1); assay type: cell-based; details: Cutibacterium acnes
Excerpt: Table 1 below depicts the antimicrobial susceptibility patterns of P. acnes isolates against different antibiotics: […]

P. acnes = details: in those receiving prolonged antibiotic therapy with the drug (Leyden et al 1983); cited from earlier work
[2] = isolate V21A1, phylotype IA1, type IV, 23S rRNA A2059G
[3] = isolate V21A2, phylotype IB, type I, 23S rRNA A2058G
[4] = isolate V21A3, phylotype IB, type I, 23S rRNA A2058G
[5] = isolate V21A4, phylotype IB, type I, 23S rRNA A2058G
[6] = isolate V21A5, phylotype IA1, type IV, 23S rRNA A2059G
[7] = isolate V21A6, phylotype IA1, type IV, 23S rRNA A2059G
[8] = isolate V21A7, phylotype IA1, type IV, 23S rRNA A2059G
[9] = isolate V21A8, phylotype IA1, type IV, 23S rRNA A2059G
[10] = isolate V21A9, phylotype IB, type I, 23S rRNA A2058G
[11] = isolate V21A10, phylotype IB, type I, 23S rRNA A2058G
[12] = isolate V21B2, phylotype IB, type I, 23S rRNA A2058G
[13] = isolate V21B4, phylotype IB, type I, 23S rRNA A2058G
[14] = isolate V21B6, phylotype IB, type I, 23S rRNA A2058G
[15] = isolate V21B7, phylotype IB, type I, 23S rRNA A2058G
[16] = isolate V21B8, phylotype IB, type I, 23S rRNA A2058G

| Compound | MIC ([1]; P. acnes strain V21A-1) [µg/mL] | MIC ([1]; P. acnes strain V21A-5) [µg/mL] | MIC ([1]; P. acnes strain V21A-8) [µg/mL] | MIC ([1]; P. acnes strain V21B-1) [µg/mL] | MIC ([1]; P. acnes strain V21B-2) [µg/mL] | MIC ([1]; P. acnes strain V21B-3) [µg/mL] | MIC ([1]; P. acnes strain V21B-4) [µg/mL] | MIC ([1]; P. acnes strain V21B-5) [µg/mL] | MIC ([1]; P. acnes strain V21B-6) [µg/mL] | MIC ([1]; P. acnes strain V21B-7) [µg/mL] | MIC ([1]; P. acnes strain V21B-8) [µg/mL] | MIC (P. acnes isolates; [2]) [µg/mL] | MIC (P. acnes isolates; [3]) [µg/mL] | MIC (P. acnes isolates; [4]) [µg/mL] | MIC (P. acnes isolates; [5]) [µg/mL] | MIC (P. acnes isolates; [6]) [µg/mL] | MIC ([1]; P. acnes strain V21A-2) [µg/mL] | MIC ([1]; P. acnes strain V21A-6) [µg/mL] | MIC ([1]; P. acnes strain V21A-7) [µg/mL] | MIC ([1]; P. acnes strain V21A-9) [µg/mL] | other results |
| --- | --- | --- | --- | --- | --- | --- | --- | --- | --- | --- | --- | --- | --- | --- | --- | --- | --- | --- | --- | --- | --- |
| C[C@H]1COc2c(N3CCN(C)CC3)c(F)cc3c(=O)c(C(=O)O)cn1c23 [Levofloxacin, levofloxacin] | < 0.13 | < 0.13 | < 0.13 | 0.5 (≈ 1.38 µM) | 0.3 (≈ 0.83 µM) | 0.5 (≈ 1.38 µM) | 0.5 (≈ 1.38 µM) | 0.5 (≈ 1.38 µM) | 0.5 (≈ 1.38 µM) | 0.3 (≈ 0.83 µM) | 0.5 (≈ 1.38 µM) |  |  |  |  |  |  |  |  |  |  |
| CCC[C@@H]1C[C@@H](C(=O)N[C@@H]([C@H]2O[C@H](SC)[C@H](O)[C@@H](O)[C@H]2O)[C@H](C)Cl)N(C)C1 [Clindamycin, clindamycin] | 1 to 8 (≈ 2.35 to 18.8 µM) | 1 (≈ 2.35 µM) | 1 to 2 (≈ 2.35 to 4.71 µM) | 64 (≈ 151 µM) | 16 to 64 (≈ 37.6 to 151 µM) | 64 (≈ 151 µM) | 32 to 64 (≈ 75.3 to 151 µM) | 1 to 4 (≈ 2.35 to 9.41 µM) | 16 to 64 (≈ 37.6 to 151 µM) | 16 to 64 (≈ 37.6 to 151 µM) | 16 to 64 (≈ 37.6 to 151 µM) | 1 to 8 (≈ 2.35 to 18.8 µM) | 8 to 64 (≈ 18.8 to 151 µM) | 8 to 32 (≈ 18.8 to 75.3 µM) | 16 to 64 (≈ 37.6 to 151 µM) | 1 (≈ 2.35 µM) | 8 to 64 (≈ 18.8 to 151 µM) | 1 to 2 (≈ 2.35 to 4.71 µM) | 0.5 to 2 (≈ 1.18 to 4.71 µM) | 16 to 32 (≈ 37.6 to 75.3 µM) | MIC (P. acnes isolates; [7]): 1 to 2 µg/mL (≈ 2.35 to 4.71 µM); MIC (P. acnes isolates; [8]): 0.5 to 2 µg/mL (≈ 1.18 to 4.71 µM); MIC (P. acnes isolates; [9]): 1 to 2 µg/mL (≈ 2.35 to 4.71 µM); MIC (P. acnes isolates; [10]): 16 to 32 µg/mL (≈ 37.6 to 75.3 µM); MIC (P. acnes isolates; [11]): 16 to 64 µg/mL (≈ 37.6 to 151 µM); MIC (P. acnes isolates; [12]): 16 to 64 µg/mL (≈ 37.6 to 151 µM); MIC (P. acnes isolates; [13]): 32 to 64 µg/mL (≈ 75.3 to 151 µM); MIC (P. acnes isolates; [14]): 16 to 64 µg/mL (≈ 37.6 to 151 µM); MIC (P. acnes isolates; [15]): 16 to 64 µg/mL (≈ 37.6 to 151 µM); MIC (P. acnes isolates; [16]): 16 to 64 µg/mL (≈ 37.6 to 151 µM); MIC ([1]; P. acnes strain V21A-3): 8 to 32 µg/mL (≈ 18.8 to 75.3 µM) |
| CC1CCc2c(N3CCC(O)CC3)c(F)cc3c(=O)c(C(=O)O)cn1c23 (centres unmarked) [Nadifloxacin, nadifloxacin] | < 0.13 | < 0.13 | < 0.13 | 0.5 (≈ 1.39 µM) | 0.5 (≈ 1.39 µM) | 0.5 (≈ 1.39 µM) | 0.5 (≈ 1.39 µM) | 0.5 (≈ 1.39 µM) | 0.5 (≈ 1.39 µM) | 0.5 (≈ 1.39 µM) | 0.5 (≈ 1.39 µM) |  |  |  |  |  | 0.3 (≈ 0.832 µM) | 0.3 (≈ 0.832 µM) |  | 0.3 (≈ 0.832 µM) | MIC ([1]; P. acnes strain V21A-4): 0.3 µg/mL (≈ 0.832 µM); MIC ([1]; P. acnes strain V21A-10): 0.3 µg/mL (≈ 0.832 µM); susceptibility of the strains as indicated by MIC values [1]: susceptible |
| N[C@@H]1CCCCN(c2c(F)cc3c(=O)c(C(=O)O)cn(C4CC4)c3c2Cl)C1 [Besifloxacin, besifloxacin] |  |  |  | 0.5 (≈ 1.27 µM) | 0.25 (≈ 0.635 µM) | 0.25 (≈ 0.635 µM) | 0.25 (≈ 0.635 µM) | 0.5 (≈ 1.27 µM) | 0.25 (≈ 0.635 µM) | 0.25 (≈ 0.635 µM) | 0.25 (≈ 0.635 µM) |  |  |  |  |  |  |  | 0.13 (≈ 0.33 µM) |  | susceptibility of the strains as indicated by MIC values [1]: susceptible |
| CC[C@H]1OC(=O)[C@H](C)[C@@H](O[C@H]2C[C@@](C)(OC)[C@@H](O)[C@H](C)O2)[C@H](C)[C@@H](O[C@@H]2O[C@H](C)C[C@H](N(C)C)[C@H]2O)[C@](C)(O)C[C@@H](C)C(=O)[C@H](C)[C@@H](O)[C@]1(C)O [Erythromycin, erythromycin] | 50 to 200 (≈ 68.1 to 273 µM) | 100 to 200 (≈ 136 to 273 µM) | 100 to 200 (≈ 136 to 273 µM) | > 200 | > 200 | > 200 | 200 (≈ 273 µM) | > 200 | > 200 | > 200 | > 200 | 50 to 200 (≈ 68.1 to 273 µM) | 50 to 200 (≈ 68.1 to 273 µM) | 100 to 200 (≈ 136 to 273 µM) | 100 to 200 (≈ 136 to 273 µM) | 100 to 200 (≈ 136 to 273 µM) | 50 to 200 (≈ 68.1 to 273 µM) | 100 to 200 (≈ 136 to 273 µM) | 100 to 200 (≈ 136 to 273 µM) | 100 to 200 (≈ 136 to 273 µM) | MIC (P. acnes isolates; [7]): 100 to 200 µg/mL (≈ 136 to 273 µM); MIC (P. acnes isolates; [8]): 100 to 200 µg/mL (≈ 136 to 273 µM); MIC (P. acnes isolates; [9]): 100 to 200 µg/mL (≈ 136 to 273 µM); MIC (P. acnes isolates; [10]): 100 to 200 µg/mL (≈ 136 to 273 µM); MIC (P. acnes isolates; [11]): 100 to 200 µg/mL (≈ 136 to 273 µM); MIC (P. acnes isolates; [12]): > 200 µg/mL; MIC (P. acnes isolates; isolate V21B3, phylotype IB, type I, 23S rRNA A2058G): > 200 µg/mL; MIC (P. acnes isolates; [13]): > 200 µg/mL; MIC (P. acnes isolates; [14]): > 200 µg/mL; MIC (P. acnes isolates; [15]): > 200 µg/mL; MIC (P. acnes isolates; [16]): > 200 µg/mL; increase of average MIC (P. acnes): 100 fold; MIC ([1]; P. acnes strain V21A-3): 100 to 200 µg/mL (≈ 136 to 273 µM); MIC ([1]; P. acnes strain V21A-4): 100 to 200 µg/mL (≈ 136 to 273 µM); MIC ([1]; P. acnes strain V21A-10): 100 to 200 µg/mL (≈ 136 to 273 µM) |
